The source made the active and inactive calls. The calls are words filed in the database; no cut-off is given here.
How the values were obtained:
[1] = species: Homo sapiens; experiment: Inhibition of Pi3K (unknown origin) at 10 uM after 40 mins by scintillation counting analysis
[2] = target: Tyrosine-protein kinase JAK1 (Homo sapiens) (UniProt P23458); experiment: Inhibition of JAK1 (unknown origin) at 10 uM after 40 mins by scintillation counting analysis
[3] = target: Cyclin-dependent kinase 2/cyclin E (Homo sapiens) (UniProt P24864+P24941+O96020); experiment: Inhibition of CDK2/cyclin E (unknown origin) at 10 uM after 40 mins by scintillation counting analysis; type: protein-complex assay
[4] = target: Mitogen-activated protein kinase 10 (Homo sapiens) (UniProt P53779); experiment: Inhibition of JNK3 (unknown origin) at 10 uM after 40 mins by scintillation counting analysis
Chain of Mitogen-activated protein kinase 10 (Homo sapiens) (P53779 whole entry): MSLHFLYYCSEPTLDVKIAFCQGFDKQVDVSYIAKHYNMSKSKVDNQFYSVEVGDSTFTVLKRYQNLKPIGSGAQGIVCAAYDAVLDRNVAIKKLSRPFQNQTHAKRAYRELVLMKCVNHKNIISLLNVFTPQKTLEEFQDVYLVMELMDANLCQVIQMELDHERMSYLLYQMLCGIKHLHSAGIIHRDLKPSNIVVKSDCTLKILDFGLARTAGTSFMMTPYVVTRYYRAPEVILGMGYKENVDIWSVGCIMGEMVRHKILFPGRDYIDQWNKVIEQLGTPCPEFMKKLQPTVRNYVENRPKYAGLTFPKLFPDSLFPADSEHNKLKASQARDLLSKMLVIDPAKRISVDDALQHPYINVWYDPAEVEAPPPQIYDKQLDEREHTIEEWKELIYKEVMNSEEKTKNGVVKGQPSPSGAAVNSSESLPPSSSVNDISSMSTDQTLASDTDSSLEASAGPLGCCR

[5] = target: Aurora kinase A (Homo sapiens) (UniProt O14965); experiment: Inhibition of Aurora A (unknown origin) at 10 uM after 40 mins by scintillation counting analysis
[6] = target: Glycogen synthase kinase-3 beta (Homo sapiens) (UniProt P49841); experiment: Inhibition of GSK3b (unknown origin) at 10 uM after 40 mins by scintillation counting analysis
[7] = target: Tyrosine-protein kinase Lyn (Homo sapiens, UniProt P07948); experiment: Inhibition of Lyn (unknown origin) at 10 uM after 40 mins by scintillation counting analysis
Chain of Tyrosine-protein kinase Lyn (P07948 2-512 limits assumed): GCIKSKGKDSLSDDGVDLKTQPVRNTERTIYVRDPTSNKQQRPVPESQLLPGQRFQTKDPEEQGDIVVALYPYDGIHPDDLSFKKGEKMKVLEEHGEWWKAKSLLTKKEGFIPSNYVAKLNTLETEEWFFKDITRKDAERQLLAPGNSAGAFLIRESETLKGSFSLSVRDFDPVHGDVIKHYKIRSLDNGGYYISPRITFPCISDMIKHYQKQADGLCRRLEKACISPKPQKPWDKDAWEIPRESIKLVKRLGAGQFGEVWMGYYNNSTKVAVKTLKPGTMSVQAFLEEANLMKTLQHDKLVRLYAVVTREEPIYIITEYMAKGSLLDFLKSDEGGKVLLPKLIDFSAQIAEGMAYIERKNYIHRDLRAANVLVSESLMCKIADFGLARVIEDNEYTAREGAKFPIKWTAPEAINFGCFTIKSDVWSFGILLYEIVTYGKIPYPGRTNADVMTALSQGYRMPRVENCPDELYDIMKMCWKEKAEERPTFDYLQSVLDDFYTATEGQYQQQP

[8] = target: Fibroblast growth factor receptor 3 (Homo sapiens) (UniProt P22607); experiment: Inhibition of FGFR3 (unknown origin) at 10 uM after 40 mins by scintillation counting analysis
Chain of Fibroblast growth factor receptor 3 (Homo sapiens) (P22607 23-806 limits assumed): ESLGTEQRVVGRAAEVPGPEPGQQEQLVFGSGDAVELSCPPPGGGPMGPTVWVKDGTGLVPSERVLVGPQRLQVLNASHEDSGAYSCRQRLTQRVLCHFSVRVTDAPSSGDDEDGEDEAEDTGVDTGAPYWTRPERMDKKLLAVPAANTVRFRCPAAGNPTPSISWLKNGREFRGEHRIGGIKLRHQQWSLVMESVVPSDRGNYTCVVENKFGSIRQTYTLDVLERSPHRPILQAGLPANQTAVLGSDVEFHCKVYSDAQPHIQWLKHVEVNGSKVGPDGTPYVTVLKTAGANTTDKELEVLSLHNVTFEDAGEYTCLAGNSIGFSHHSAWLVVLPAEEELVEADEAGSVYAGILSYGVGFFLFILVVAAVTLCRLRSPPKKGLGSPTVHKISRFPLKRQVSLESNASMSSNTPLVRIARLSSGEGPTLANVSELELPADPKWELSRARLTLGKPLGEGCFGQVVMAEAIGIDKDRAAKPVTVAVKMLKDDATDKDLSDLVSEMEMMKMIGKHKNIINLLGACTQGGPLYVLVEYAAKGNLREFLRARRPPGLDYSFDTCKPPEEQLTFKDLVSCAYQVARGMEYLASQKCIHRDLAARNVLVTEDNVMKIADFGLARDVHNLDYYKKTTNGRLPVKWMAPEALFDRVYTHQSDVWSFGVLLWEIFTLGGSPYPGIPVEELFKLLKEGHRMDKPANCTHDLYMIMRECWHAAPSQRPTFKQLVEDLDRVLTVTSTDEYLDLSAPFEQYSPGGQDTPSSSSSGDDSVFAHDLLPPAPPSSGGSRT

[9] = target: Protein kinase C (PKC) (Homo sapiens) (UniProt O94806+P41743+P17252+P05129+Q05655+P05771+Q05513+Q02156+P24723+Q15139+Q04759); experiment: Inhibition of PKC (unknown origin) at 10 uM after 40 mins by scintillation counting analysis
[10] = target: Macrophage colony-stimulating factor 1 receptor (Homo sapiens, UniProt P07333); experiment: Inhibition of FMS (unknown origin) at 10 uM after 40 mins by scintillation counting analysis
[11] = target: Serine/threonine-protein kinase PLK1 (Homo sapiens) (UniProt P53350); experiment: Inhibition of PLK1 (unknown origin) at 10 uM after 40 mins by scintillation counting analysis
Chain of Serine/threonine-protein kinase PLK1 (Homo sapiens) (P53350 whole entry): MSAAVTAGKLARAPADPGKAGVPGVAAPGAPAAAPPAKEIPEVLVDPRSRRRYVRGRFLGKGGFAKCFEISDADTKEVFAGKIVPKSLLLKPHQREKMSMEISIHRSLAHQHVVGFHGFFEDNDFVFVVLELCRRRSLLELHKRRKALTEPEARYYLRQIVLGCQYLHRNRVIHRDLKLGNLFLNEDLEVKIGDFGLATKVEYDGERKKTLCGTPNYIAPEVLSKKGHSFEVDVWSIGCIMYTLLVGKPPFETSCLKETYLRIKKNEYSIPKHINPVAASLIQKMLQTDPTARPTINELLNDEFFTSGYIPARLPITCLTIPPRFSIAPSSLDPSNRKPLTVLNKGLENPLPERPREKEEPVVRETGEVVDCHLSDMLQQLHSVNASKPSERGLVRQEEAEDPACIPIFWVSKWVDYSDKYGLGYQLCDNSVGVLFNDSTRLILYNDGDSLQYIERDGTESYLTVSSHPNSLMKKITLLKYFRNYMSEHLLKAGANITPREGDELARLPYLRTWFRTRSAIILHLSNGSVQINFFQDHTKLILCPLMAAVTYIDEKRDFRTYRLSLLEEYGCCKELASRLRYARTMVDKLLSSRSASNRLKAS

[12] = target: Platelet-derived growth factor receptor alpha (Homo sapiens) (UniProt P16234); experiment: Inhibition of PDGFRalpha (unknown origin) at 10 uM after 40 mins by scintillation counting analysis
[13] = target: Proto-oncogene tyrosine-protein kinase Src (Homo sapiens) (UniProt P12931); experiment: Inhibition of c-SRC (unknown origin) at 10 uM after 40 mins by scintillation counting analysis
Chain of Proto-oncogene tyrosine-protein kinase Src (Homo sapiens) (P12931 2-536 limits assumed): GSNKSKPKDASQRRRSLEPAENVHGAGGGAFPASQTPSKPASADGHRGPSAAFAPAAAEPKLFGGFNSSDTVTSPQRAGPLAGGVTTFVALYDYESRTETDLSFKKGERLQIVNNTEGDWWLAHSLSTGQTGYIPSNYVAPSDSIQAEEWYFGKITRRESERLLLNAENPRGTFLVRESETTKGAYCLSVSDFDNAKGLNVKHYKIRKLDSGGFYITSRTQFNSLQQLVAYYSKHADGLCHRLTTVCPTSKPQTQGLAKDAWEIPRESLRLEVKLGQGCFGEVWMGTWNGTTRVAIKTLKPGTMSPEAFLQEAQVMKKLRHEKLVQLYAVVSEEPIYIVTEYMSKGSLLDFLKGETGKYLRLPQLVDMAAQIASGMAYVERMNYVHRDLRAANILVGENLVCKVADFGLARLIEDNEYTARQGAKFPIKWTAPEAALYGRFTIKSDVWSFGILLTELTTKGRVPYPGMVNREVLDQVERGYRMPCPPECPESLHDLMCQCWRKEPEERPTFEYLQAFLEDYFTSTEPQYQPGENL

[14] = target: Tyrosine-protein kinase SYK (Homo sapiens) (UniProt P43405); experiment: Inhibition of SYK (unknown origin) at 10 uM after 40 mins by scintillation counting analysis
[15] = target: cAMP-dependent protein kinase (PKA) (Homo sapiens) (UniProt P22694+P17612+P22612); experiment: Inhibition of PKA (unknown origin) at 10 uM after 40 mins by scintillation counting analysis; type: protein assay
[16] = test system: Serine/threonine-protein kinase B-raf (Homo sapiens), P15056 [V600E]; experiment: Inhibition of BRAF V599E mutant (unknown origin) at 10 uM after 40 mins by scintillation counting analysis
Chain of Serine/threonine-protein kinase B-raf (Homo sapiens), P15056 [V600E] (P15056 whole entry V600E): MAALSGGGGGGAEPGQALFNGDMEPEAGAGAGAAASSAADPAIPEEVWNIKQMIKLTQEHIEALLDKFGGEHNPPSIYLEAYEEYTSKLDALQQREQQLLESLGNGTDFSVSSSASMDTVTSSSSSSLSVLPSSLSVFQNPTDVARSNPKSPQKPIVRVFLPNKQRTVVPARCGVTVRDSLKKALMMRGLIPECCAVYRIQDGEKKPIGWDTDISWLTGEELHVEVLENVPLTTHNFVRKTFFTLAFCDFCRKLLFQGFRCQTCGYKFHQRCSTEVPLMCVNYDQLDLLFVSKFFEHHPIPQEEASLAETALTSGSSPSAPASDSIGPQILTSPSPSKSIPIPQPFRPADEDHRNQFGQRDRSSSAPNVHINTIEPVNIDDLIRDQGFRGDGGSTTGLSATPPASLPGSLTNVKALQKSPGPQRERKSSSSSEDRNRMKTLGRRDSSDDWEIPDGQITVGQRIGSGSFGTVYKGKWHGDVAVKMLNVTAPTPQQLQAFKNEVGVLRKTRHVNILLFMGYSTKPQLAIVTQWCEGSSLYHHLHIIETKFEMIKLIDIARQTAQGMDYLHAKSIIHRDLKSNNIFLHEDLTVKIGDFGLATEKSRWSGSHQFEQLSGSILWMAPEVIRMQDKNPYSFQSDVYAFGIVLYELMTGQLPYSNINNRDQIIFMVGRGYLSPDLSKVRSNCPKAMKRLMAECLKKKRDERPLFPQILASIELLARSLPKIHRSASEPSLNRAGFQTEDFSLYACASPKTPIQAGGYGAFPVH

[17] = target: Tyrosine-protein kinase Lck (Homo sapiens) (UniProt P06239); experiment: Inhibition of LCK (unknown origin) at 10 uM after 40 mins by scintillation counting analysis
[18] = target: Vascular endothelial growth factor receptor 1 (Homo sapiens) (UniProt P17948); experiment: Inhibition of FLT1 (unknown origin) at 10 uM after 40 mins by scintillation counting analysis
[19] = target: Fibroblast growth factor receptor 2 (Homo sapiens) (UniProt P21802); experiment: Inhibition of FGFR2 (unknown origin) at 10 uM after 40 mins by scintillation counting analysis
[20] = target: Receptor-type tyrosine-protein kinase FLT3 (Homo sapiens) (UniProt P36888); experiment: Inhibition of FLT3 (unknown origin) at 10 uM after 40 mins by scintillation counting analysis
Chain of Receptor-type tyrosine-protein kinase FLT3 (Homo sapiens) (P36888 whole entry): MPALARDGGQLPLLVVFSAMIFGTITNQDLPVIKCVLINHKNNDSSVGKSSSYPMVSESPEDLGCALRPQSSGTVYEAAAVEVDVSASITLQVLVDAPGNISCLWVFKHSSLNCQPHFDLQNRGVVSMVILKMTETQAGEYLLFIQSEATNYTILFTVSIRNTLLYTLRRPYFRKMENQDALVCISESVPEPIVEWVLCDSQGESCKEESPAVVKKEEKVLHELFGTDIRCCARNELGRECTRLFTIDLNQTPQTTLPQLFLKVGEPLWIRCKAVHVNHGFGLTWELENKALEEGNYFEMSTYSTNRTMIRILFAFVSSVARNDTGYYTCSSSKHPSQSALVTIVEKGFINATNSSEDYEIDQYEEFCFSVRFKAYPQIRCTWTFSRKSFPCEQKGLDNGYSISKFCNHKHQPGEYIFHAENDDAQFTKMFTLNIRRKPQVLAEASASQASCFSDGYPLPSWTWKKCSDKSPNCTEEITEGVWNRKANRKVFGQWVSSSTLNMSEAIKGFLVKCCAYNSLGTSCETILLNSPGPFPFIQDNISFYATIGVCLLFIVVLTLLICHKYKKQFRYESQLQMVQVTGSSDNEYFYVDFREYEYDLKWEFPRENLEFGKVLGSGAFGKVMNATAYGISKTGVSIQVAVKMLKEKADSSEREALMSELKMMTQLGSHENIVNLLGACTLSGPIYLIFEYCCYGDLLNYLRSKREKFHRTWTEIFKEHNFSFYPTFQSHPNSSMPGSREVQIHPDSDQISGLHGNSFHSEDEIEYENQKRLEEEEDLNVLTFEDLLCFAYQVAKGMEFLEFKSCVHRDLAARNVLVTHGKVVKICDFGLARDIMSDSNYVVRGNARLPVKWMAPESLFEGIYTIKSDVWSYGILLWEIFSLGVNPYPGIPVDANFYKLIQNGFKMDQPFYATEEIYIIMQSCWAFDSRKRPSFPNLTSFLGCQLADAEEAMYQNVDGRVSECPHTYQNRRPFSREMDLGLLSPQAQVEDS

[21] = target: RAC-alpha serine/threonine-protein kinase (Homo sapiens) (UniProt P31749); experiment: Inhibition of AKT1 (unknown origin) at 10 uM after 40 mins by scintillation counting analysis
[22] = target: Mitogen-activated protein kinase 3 (Homo sapiens) (UniProt P27361); experiment: Inhibition of ErK1 (unknown origin) at 10 uM after 40 mins by scintillation counting analysis
Chain of Mitogen-activated protein kinase 3 (Homo sapiens) (P27361 whole entry): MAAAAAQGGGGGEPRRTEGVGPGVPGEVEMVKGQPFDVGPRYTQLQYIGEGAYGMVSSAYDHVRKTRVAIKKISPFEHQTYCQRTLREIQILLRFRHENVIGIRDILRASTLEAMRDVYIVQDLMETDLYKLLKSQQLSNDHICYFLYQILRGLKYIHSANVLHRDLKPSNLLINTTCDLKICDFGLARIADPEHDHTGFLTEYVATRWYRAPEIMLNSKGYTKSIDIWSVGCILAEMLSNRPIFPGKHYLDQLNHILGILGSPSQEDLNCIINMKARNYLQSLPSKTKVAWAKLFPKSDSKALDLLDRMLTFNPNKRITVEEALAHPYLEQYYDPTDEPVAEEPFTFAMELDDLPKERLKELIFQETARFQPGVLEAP

[23] = target: Vascular endothelial growth factor receptor 2 (Homo sapiens) (UniProt P35968); experiment: Inhibition of VEGFR2 (unknown origin) at 10 uM after 40 mins by scintillation counting analysis
[24] = target: Dual specificity mitogen-activated protein kinase kinase 1 (Homo sapiens) (UniProt Q02750); experiment: Inhibition of MEK1 (unknown origin) at 10 uM after 40 mins by scintillation counting analysis
[25] = target: Serine/threonine-protein kinase mTOR (Homo sapiens, UniProt P42345); experiment: Inhibition of mTOR (unknown origin) at 10 uM after 40 mins by scintillation counting analysis
[26] = target: Tyrosine-protein kinase HCK (Homo sapiens) (UniProt P08631); experiment: Inhibition of HCK (unknown origin) at 10 uM after 40 mins by scintillation counting analysis
[27] = target: Focal adhesion kinase 1 (Homo sapiens) (UniProt Q05397); experiment: Inhibition of FAK (unknown origin) at 10 uM after 40 mins by scintillation counting analysis
[28] = target: Cyclin-dependent kinase 1/cyclin B (Homo sapiens) (UniProt P06493+P14635+Q8WWL7+O95067); experiment: Inhibition of CDK1/cyclin B (unknown origin) at 10 uM after 40 mins by scintillation counting analysis; type: protein-complex assay
[29] = target: Angiopoietin-1 receptor (Homo sapiens) (UniProt Q02763); experiment: Inhibition of TIE2 (unknown origin) at 10 uM after 40 mins by scintillation counting analysis
[30] = target: Tyrosine-protein kinase ITK/TSK (Homo sapiens) (UniProt Q08881); experiment: Inhibition of ITK (unknown origin) at 10 uM after 40 mins by scintillation counting analysis
[31] = target: Platelet-derived growth factor receptor beta (Homo sapiens) (UniProt P09619); experiment: Inhibition of PDGFRbeta (unknown origin) at 10 uM after 40 mins by scintillation counting analysis
[32] = target: Tyrosine-protein kinase ABL1 (Homo sapiens) (UniProt P00519); experiment: Inhibition of ABL1 (unknown origin) at 10 uM after 40 mins by scintillation counting analysis
[33] = target: Mast/stem cell growth factor receptor Kit (Homo sapiens) (UniProt P10721); experiment: Inhibition of c-Kit (unknown origin) at 10 uM after 40 mins by scintillation counting analysis
[34] = target: ALK tyrosine kinase receptor (Homo sapiens) (UniProt Q9UM73); experiment: Inhibition of ALK (unknown origin) at 10 uM after 40 mins by scintillation counting analysis
[35] = target: Mitogen-activated protein kinase 8 (Homo sapiens) (UniProt P45983); experiment: Inhibition of JNK1 (unknown origin) at 10 uM after 40 mins by scintillation counting analysis

- inhibition [1]: inactive
- inhibition [2]: inactive
- inhibition [3]: inactive
- inhibition [4]: inactive
- inhibition [5]: inactive
- inhibition [6]: inactive
- inhibition [7]: inactive
- inhibition [8]: inactive
- inhibition [9]: inactive
- inhibition [10]: inactive
- inhibition [11]: inactive
- inhibition [12]: inactive
- inhibition [13]: inactive
- inhibition [14]: inactive
- inhibition [15]: inactive
- inhibition [16]: inactive
- inhibition [17]: inactive
- inhibition [18]: inactive
- inhibition [19]: inactive
- inhibition [20]: inactive
- inhibition [21]: inactive
- inhibition [22]: inactive
- inhibition [23]: inactive
- inhibition [24]: inactive
- inhibition [25]: inactive
- inhibition [26]: inactive
- inhibition [27]: inactive
- inhibition [28]: inactive
- inhibition [29]: inactive
- inhibition [30]: inactive
- inhibition [31]: inactive
- inhibition [32]: inactive
- inhibition [33]: inactive
- inhibition [34]: inactive
- inhibition [35]: inactive
SMILES: Cc1ccccc1C(=O)Nc1cnoc1C

From ChEMBL document CHEMBL3616395, “Discovery of 4-arylamido 3-methyl isoxazole derivatives as novel FMS kinase inhibitors” (Eur J Med Chem, 2015)
